Holding throughout (assay type): cell-based, rat
Test [1] deals with cortical neuronal cultures. The test is described as follows: Differential protein expression in preconditioned neuronal cultures, 2-D gel electrophoresis (Example 1). The note with it: CHX 0.3 μg/ml for 24 h; MK801 1 μM for 30 min, then 12 h; versus untreated DIV 12 cultures. How it is done: Cortical tissue from E18-E19 rats was dissociated in Hibernate E medium (Invitrogen, Carlsbad, Calif., USA) supplemented with 1.3 mM L-cysteine, 10 units/ml papain (ICN, Costa Mesa, Calif., USA) and 50 units/ml DNase (Sigma, St. Louis, Mo., USA) and washed in cold Dulbecco's Modified Eagle Medium (Invitrogen)/10% horse serum.
Neurons were resuspended in Neurobasal (NB; Invitrogen)/2% B27 supplement (Invitrogen), the cell concentration was adjusted to 1.8 million neurons/2 ml and 2 ml inoculated into each well of a 6 well plate pretreated as described below.
Neuronal cultures were maintained in a CO2 incubator (5% CO2, 95% air balance, 98% humidity) at 37° C. […]
Total protein was isolated from control and preconditioned neuronal cultures at the times outlined above by removing all the media from wells and washing once with phosphate-buffered saline, before the addition of lysis buffer (7M urea, 2M thiourea, 40 mM tris-HCl, 1% sulfobetaine 3-10, 2% CHAPS, 65 mM DTT, 1% Bio-Lyte carrier ampholytes pH 3-10; Bio-Rad, Hercules, Calif., USA). […] Protein content was determined by amino acid analysis using Waters AccQ Tag chemistry (Millipore Corporation, Milford, Mass., USA) as previously described (Cohen et al., 1983, in: Angeletti, R. H. (Ed.), Techniques in Protein Chemistry IV, Academic Press, San Diego). […]

The subject of test [2] is cortical neuronal cultures. The test is described as follows: Cumene hydroperoxide oxidative stress, neuronal survival by MTS assay (Example 4). The note with it: for neuronal survival following cumene exposure: cumene 25 μM, survival 24 h later, untreated 15%, FIG. 8A. How it is done: (§1) Neurons were resuspended in Neurobasal (NB; Invitrogen) containing 2% B27 supplement (B27; Invitrogen).
(§2) Neuronal cultures were maintained in a CO2 incubator (5% CO2, 95% air balance, 98% humidity) at 37° C.
On the technique in general: Formazan colour is commonly taken as a measure of viable cells.

For test [3], the system named is primary cortical neuronal cultures. Nature of the test: In vitro ischaemia/stroke model, transient oxygen glucose deprivation (Example 3). The note with it: protein added (0.1-100 nM) at the time of in vitro ischaemia.
Test [4] has the same test system. Nature of the test: Cumene oxidative stress injury model (Example 3). The settings on record: protein added (0.1-100 nM) at the time of cumene exposure. The source says:
Adenovirus vectors were used to upregulate specific proteins in primary cortical neuronal cultures. cDNA for proteins of interest was obtained by RT-PCR and cloned into pGEM. Sequence verified cDNA clones were then used to construct recombinant adenoviruses expressing genes of interest under the control of the rous sarcoma virus (RSV) promoter and the woodchuck post-transcriptional regulatory element (WPRE). The recombinant viruses also express the reporter GFP under the control of the CMV promoter. Protein of interest expression in recombinant adenoviruses was confirmed in transfected HEK and/or neuronal cultures. Control viruses consisted of an adenovirus expressing RFP, no gene (empty vector) and the anti-apoptotic gene Bcl-xl. […]
Cumene induced oxidative stress was performed by removing media from neuronal culture wells and adding 100 μl DMEM/N2 medium containing different concentrations of cumene (20-25 μM). […] Neuronal viability was measured and analysed as described above.

Test [5] deals with ERK2 (p42). Nature of the test: rhCyPA mediated ERK1/2 phosphorylation time course, Western blot densitometry. The settings on record: rhCyPA 100 nM. How it is done: (§3) FIG. 7—time course of recombinant human (rh) CyPA mediated ERK1/2 phosphorylation in cortical neuronal cultures. Neuronal cultures were treated with rhCyPA (100 nM) for the indicated times. The resulting protein lysates were probed with antibody to detect phosphorylated ERK1/2 and then re-probed for total ERK1/2.
(§4) For protein extraction, brain tissue and cultured cells were lysed in buffer (50 mM Tris-HCl pH 7.5, 100 mM NaCl, 20 mM EDTA, 0.1% SDS, 0.2% deoxycholic acid, containing Complete™ protein inhibitor, Roche), vortexed briefly and clarified by centrifugation at 4° C. Protein concentrations were determined by the Bradford assay (Biorad, USA). Equivalent amounts of protein (5-10 μg per lane) were loaded and separated on 4-12% gradient SDS poly-acrylamide Bis-Tris mini-gels, (NuPAGE; Invitrogen) and transferred to a PVDF membrane. Membranes were blocked in PBS/T containing ovalbumin (1 mg/mL) for 1 min at room temperature before washing in PBS/T and PBS.
(§5) Membranes were incubated at 4° C. overnight in blocking solution containing primary antibody, washed and incubated in blocking solution containing HRP conjugated secondary antibody for 1 h at room temperature. Protein bands were detected using ECL Plus (Amersham, UK) and visualised by exposure to x-ray film (Hyperfilm; Amersham), scanned and quantified using NIH image. Primary antibodies used were; rabbit polyclonal anti-CyPA (1:25000; Biomol), mouse monoclonal anti-β-tubulin (0.5 μg/mL, Pharmingen, USA), mouse monoclonal anti-phospho ERK1/2 (1:5000; Santa Cruz), rabbit polyclonal anti-ERK1/2 (1:10000; Santa Cruz) and goat polyclonal anti-CD147 (1:10000; Santa Cruz). Secondary antibodies were donkey anti-rabbit IgG (1:25,000-1:50,000; Amersham), sheep anti-mouse IgG (1:10,000-1:20,000; Amersham) and rabbit anti-goat IgG (Zymed).
(§6) To determine if exogenously applied CyPA can mediate ERK1/2 activation we exposed neuronal cultures to rhCyPA protein (100 nM) and the results are summarised in FIG. 7. Addition of rhCyPA induced a rapid phosphorylation of ERK1 and ERK2, which peaked at 5 min, before returning to basal levels.

The test system of test [6] is ERK1 (p44). The description is as above. The settings on record: rhCyPA 100 nM. How it is done: as §3, §4, §5, §6
The test system of test [7] is cortical neuronal cultures. The test is described as follows: In vitro ischemia, neuronal survival by MTS assay (Example 4). The note with it: rhCyPA 100 nM; survival 24 h later; untreated 24%; FIG. 8B. The method, then: as §1, §2

Turning to `C[C@@H]1C[C@@H]([C@H](O)CC2CC(=O)NC(=O)C2)C(=O)[C@@H](C)C1` [CHX, cycloheximide], the “overall change of protein expression after preconditioning” value in test [1] is “protein down-regulation”.

Consider `C[C@]12N[C@H](Cc3ccccc31)c1ccccc12` [MK801], for which the “overall change of protein expression after preconditioning” value in test [1] is “protein down-regulation”.

On to `CC(C)c1ccccc1.OO` [cumene, cumene hydroperoxide, reference compound], for which the “cell survival after exposure to cumene” value in test [2] (25 μM cumene, dose response experiment, data not shown) is recorded as 15-30%.

With “CyPA protein: CyPA protein suspended in PBS, added to neuronal cultures (0.1-100 nM)”, the “neuroprotection against in vitro ischaemia” value in test [3] was “neuroprotective”. In addition, the “neuroprotection against cumene insult” value in test [4] is recorded as “neuroprotective”.

On to “rhCyPA: recombinant human cyclophilin A (rhCyPA, Biomol)”, for which the “ERK2 (p42) activation increase” value in test [5] (at 5 min, FIG. 7) is 3.3 fold. Also, the “time of peak phosphorylation of ERK2” value in test [5] (then returning to basal levels) came to 5 min. The “ERK1 (p44) activation increase” value in test [6] (at 5 min, FIG. 7) came out at 2.6 fold. Further, in test [6] (then returning to basal levels), the “time of peak phosphorylation of ERK1” value came out at 5 min. Also, the “neuronal survival following cumene exposure” value in test [2] (rhCyPA 10 nM) came to 56%; in test [2] (rhCyPA 100 nM), 70%. In addition, in test [7], the “neuronal survival following in vitro ischemia” value stood at 35%.
